# Measured values reported in publication PMC4710668, “Bioactivation of food genotoxicants 5-hydroxymethylfurfural and furfuryl alcohol by sulfotransferases from human, mouse and rat: a comparative study” (Archives of Toxicology, 2014).
# Experiments:
# Assay in all cases: FFA sulfoconjugation assay (N6-MF-A formation with adenosine as scavenger)
# Assay type in all cases: biochemical
# mSult2a2 = molecular target: T1, mSult2a2 (Mus musculus, UniProt P50236)
# T1 construct: made in house; host or cells: Salmonella typhimurium TA1538 (cytosolic fraction, enzyme not purified)
# T1 sequence (P50236 1-285): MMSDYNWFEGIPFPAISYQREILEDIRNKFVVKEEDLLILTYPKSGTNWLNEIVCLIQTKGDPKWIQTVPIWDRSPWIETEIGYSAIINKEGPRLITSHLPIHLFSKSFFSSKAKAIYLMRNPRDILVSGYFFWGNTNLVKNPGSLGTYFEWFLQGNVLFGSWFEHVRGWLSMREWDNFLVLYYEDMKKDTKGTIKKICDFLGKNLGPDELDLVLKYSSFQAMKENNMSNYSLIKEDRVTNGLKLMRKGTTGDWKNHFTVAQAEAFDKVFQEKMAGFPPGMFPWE
# In short: (§1)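 Enzyme source: cytosolic preparations of TA1538 bacteria expressing single SULT forms. FFA + 10 mM adenosine, 20 min, 37 °C; stopped with cold methanol. Readout: N6-MF-A by UPLC-MS/MS, three MRM transitions, labelled internal standard; SULT-free background subtracted. Quadruplicates.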
# mSult2a1 = molecular target: T2, mSult2a1 (Mus musculus, UniProt P52843)
# T2 construct: made in house; host or cells: Salmonella typhimurium TA1538 (cytosolic fraction, enzyme not purified)
# T2 sequence (P52843 1-285): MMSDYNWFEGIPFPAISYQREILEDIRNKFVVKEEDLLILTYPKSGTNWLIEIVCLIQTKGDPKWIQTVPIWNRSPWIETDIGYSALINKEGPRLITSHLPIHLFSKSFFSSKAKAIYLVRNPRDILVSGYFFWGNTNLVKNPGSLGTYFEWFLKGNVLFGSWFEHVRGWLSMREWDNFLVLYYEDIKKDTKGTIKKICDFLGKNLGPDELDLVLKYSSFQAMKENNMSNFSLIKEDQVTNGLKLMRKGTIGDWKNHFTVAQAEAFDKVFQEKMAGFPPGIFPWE
# In short: as §1
# hSULT1C1 = molecular target: T3, hSULT1C1 (Homo sapiens, UniProt O00338)
# T3 construct: made in house; host or cells: Salmonella typhimurium TA1538 (cytosolic fraction, not purified)
# In short: as §1
# rSult2a1 = molecular target: T4, rSult2a1 (Rattus norvegicus, UniProt P15709)
# T4 construct: made in house; host or cells: Salmonella typhimurium TA1538 (cytosolic fraction, enzyme not purified)
# T4 sequence (P15709 1-284): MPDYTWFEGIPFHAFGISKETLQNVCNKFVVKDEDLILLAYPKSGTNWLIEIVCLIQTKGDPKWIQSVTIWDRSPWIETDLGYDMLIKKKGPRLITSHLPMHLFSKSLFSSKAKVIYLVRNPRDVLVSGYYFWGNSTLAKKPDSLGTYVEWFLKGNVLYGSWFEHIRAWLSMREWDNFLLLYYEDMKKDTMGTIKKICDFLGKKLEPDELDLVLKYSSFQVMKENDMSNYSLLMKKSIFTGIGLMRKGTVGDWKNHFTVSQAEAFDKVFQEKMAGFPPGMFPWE
# In short: as §1
# rSult1c2 = molecular target: T5, rSult1c2 (Rattus norvegicus, UniProt Q9WUW8)
# T5 construct: made in house; host or cells: Salmonella typhimurium TA1538 (cytosolic fraction, enzyme not purified)
# In short: as §1
# T5 sequence (Q9WUW8 whole entry): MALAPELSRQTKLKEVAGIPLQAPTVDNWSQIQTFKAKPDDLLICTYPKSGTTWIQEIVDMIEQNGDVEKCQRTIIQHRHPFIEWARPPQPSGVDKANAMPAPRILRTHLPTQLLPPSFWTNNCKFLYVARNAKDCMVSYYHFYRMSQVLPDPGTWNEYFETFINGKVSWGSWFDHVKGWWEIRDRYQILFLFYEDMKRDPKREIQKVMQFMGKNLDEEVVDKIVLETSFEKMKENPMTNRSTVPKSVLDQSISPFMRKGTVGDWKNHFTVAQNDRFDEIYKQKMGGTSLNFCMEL
# T3 sequence (O00338 whole entry): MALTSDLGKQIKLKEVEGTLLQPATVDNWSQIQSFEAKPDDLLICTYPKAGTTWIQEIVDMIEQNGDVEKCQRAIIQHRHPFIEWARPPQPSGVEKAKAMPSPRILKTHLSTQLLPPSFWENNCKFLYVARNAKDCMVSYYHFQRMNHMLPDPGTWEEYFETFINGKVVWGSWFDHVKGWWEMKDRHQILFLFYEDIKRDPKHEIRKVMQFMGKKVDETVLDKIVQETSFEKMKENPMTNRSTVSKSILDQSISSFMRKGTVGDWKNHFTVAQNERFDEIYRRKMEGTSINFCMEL
structure (smiles),measurement,setting,value
"OCc1ccco1 [FFA, furfuryl alcohol]",Rate of N6-MF-A formation,mSult2a2; 0.1 mM FFA,<18 fmol N ^6-MF-A/mg/min
same,Rate of N6-MF-A formation,mSult2a2; 1 mM FFA,<20 fmol N ^6-MF-A/mg/min
same,Rate of N6-MF-A formation,mSult2a2; 10 mM FFA,216 ± 3 fmol N ^6-MF-A/mg/min
same,Rate of N6-MF-A formation,mSult2a1; 0.1 mM FFA,<18 fmol N ^6-MF-A/mg/min
same,Rate of N6-MF-A formation,mSult2a1; 1 mM FFA,<20 fmol N ^6-MF-A/mg/min
same,Rate of N6-MF-A formation,mSult2a1; 10 mM FFA,154 ± 2 fmol N ^6-MF-A/mg/min
same,Rate of N6-MF-A formation,hSULT1C1; 0.1 mM FFA,<18 fmol N ^6-MF-A/mg/min
same,Rate of N6-MF-A formation,hSULT1C1; 1 mM FFA,<20 fmol N ^6-MF-A/mg/min
same,Rate of N6-MF-A formation,hSULT1C1; 10 mM FFA,<44 fmol N ^6-MF-A/mg/min
same,Rate of N6-MF-A formation,rSult2a1; 0.1 mM FFA,<18 fmol N ^6-MF-A/mg/min
same,Rate of N6-MF-A formation,rSult2a1; 1 mM FFA,24.8 ± 1.4 fmol N ^6-MF-A/mg/min
same,Rate of N6-MF-A formation,rSult2a1; 10 mM FFA,228 ± 7 fmol N ^6-MF-A/mg/min
same,Rate of N6-MF-A formation,rSult1c2; 0.1 mM FFA,<18 fmol N ^6-MF-A/mg/min
same,Rate of N6-MF-A formation,rSult1c2; 1 mM FFA,<20 fmol N ^6-MF-A/mg/min
same,Rate of N6-MF-A formation,rSult1c2; 10 mM FFA,<44 fmol N ^6-MF-A/mg/min
